Laboratory results as given in patent publication US10570117B2, “Phenylimidazole compound” (Otsuka Pharmaceutical Factory, Inc., priority 2015, dated 2020).
Converted amounts (≈) assume the structure as drawn. Read-outs that look alike come from different tables or passages of the source.

Columns and labels:
[1] = test system: lipoprotein lipase (LPL) gene; experiment: LPL mRNA elevating action (RT-PCR quantification of LPL mRNA in C2Cl2 cells); assay type: cell-based, mouse; conditions: Mus musculus, 24 h, compound 10 μM, ratio relative to the amount of LPL mRNA in cells with DMSO only, read-out: Rate of increase in LPL mRNA
Procedure, shortened: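 Mouse striated-muscle C2Cl2 cells in DMEM with 10% FBS exposed to compounds at 10 μM for 24 h. LPL mRNA quantified by RT-PCR and real-time PCR (20 cycles), expressed as ratio to DMSO-only cells set at 1.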

[2] = Solubility in gastric juice or intestinal juice model fluid (precipitation method using DMSO); assay type: physicochemical; conditions: room temperature
Procedure, shortened: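 Compound in DMSO added to JP disintegration test fluid 1 (pH 1.2) or fluid 2 (pH 6.8) and shaken 24 h at room temperature. After filtration, dissolved concentration (μg/mL) determined by UV absorbance against compound calibration curves.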

[3] = pH 1.2, simulated gastric fluid, kinetic from dmso stock, 1st fluid for Disintegration Test of Japanese Pharmacopoeia (pH: 1.2), read-out: Solubility (μg/mL) 1st fluid
[4] = pH 6.8, kinetic from dmso stock, 2nd fluid for Disintegration Test of Japanese Pharmacopoeia (pH: 6.8), read-out: Solubility (μg/mL) 2nd fluid

Row | SMILES | fold induction at 10 µM [1] | melting point | solubility at 24 h [2, 3] | solubility at 24 h [2, 4]
1 | Cc1cc(OCc2ncc(C(F)(F)F)cc2F)ccc1-c1cnc(-c2ccc(F)nc2)[nH]1 [Example 351] | 4.12 | 216 to 222 °C | 85.9 µg/mL (≈ 192 µM) | 7 µg/mL (≈ 15.7 µM)
2 | COc1cc(OCc2ncc(C(F)(F)F)cc2F)ccc1-c1[nH]c(C2CCCC2)nc1Cl [Example 367] | 2.54 | 139 to 142 °C | 82.1 µg/mL (≈ 175 µM) | < 0.3 µg/mL
3 | COc1cc(OCc2ccc(C(F)(F)F)nc2)ccc1-c1[nH]c(-c2ccc(F)nc2)nc1I [Example 329] | 2.96 | 195 to 208 °C | 5.8 µg/mL (≈ 10.2 µM) | 13.6 µg/mL (≈ 23.8 µM)
4 | COc1cc(OCc2ccc(C(F)(F)F)cn2)ccc1-c1nc(-c2ccc(F)nc2)[nH]c1C [Example 39] | 2.7 | 141 to 150 °C | > 99 µg/mL | 5.2 µg/mL (≈ 11.3 µM)
5 | COc1cc(OCc2coc(C)n2)ccc1-c1c[nH]c(-c2ccc(Cl)nc2)n1 [Example 19] | 1.7 | 168 to 171 °C | 76.7 µg/mL (≈ 193 µM) | 2.2 µg/mL (≈ 5.54 µM)
6 | COc1cc(OCc2ncccc2C#N)ccc1-c1[nH]c(C2CCC(F)(F)CC2)nc1Cl [Example 185] | 2.41 | 161 to 162 °C | 87.4 µg/mL (≈ 190 µM) | 23.1 µg/mL (≈ 50.3 µM)
7 | COc1cc(OCc2ccc(C(F)(F)F)nc2)ccc1-c1c[nH]c(-c2ccc(F)nc2)n1 [Example 1, 2-fluoro-5-[5-[2-methoxy-4-((6-(trifluoromethyl)pyridin-3-yl)methoxy)phenyl]-1H-imidazol-2-yl]pyridine] | 2.97 | 165 to 166 °C | 20.7 µg/mL (≈ 46.6 µM) | 1.7 µg/mL (≈ 3.83 µM)
8 | COc1cc(-c2[nH]c(C3CCCC3)nc2Cl)ccc1OCc1ncc(C(F)(F)F)cc1F [Example 368] | 2.62 | 158 to 163 °C | 82.9 µg/mL (≈ 176 µM) | 0.5 µg/mL (≈ 1.06 µM)
9 | COc1cc(OCc2cccnc2C(F)(F)F)ccc1-c1cnc(-c2ccc(Cl)nc2)[nH]1 [Example 108] | 3.03 | 231 to 233 °C | 4.1 µg/mL (≈ 8.9 µM) | < 0.3 µg/mL
10 | COc1cc(-c2nc(-c3ccc(Cl)nc3)[nH]c2Cl)ccc1OCc1cccc(F)n1 [Example 220] | 2.69 | 198 to 201 °C | < 0.3 µg/mL | < 7.9 µg/mL
11 | COc1cc(OCc2ccc(C(F)(F)F)cn2)ccc1-c1[nH]c(C2CCC(F)(F)CC2)nc1Cl [Example 210] | 5.69 | 147 to 149 °C | 95.6 µg/mL (≈ 190 µM) | 1.5 µg/mL (≈ 2.99 µM)
12 | COc1cc(OCc2ccc(C(F)(F)F)nc2)ccc1-c1nc(-c2ccc(Cl)cn2)[nH]c1C [Example 27] | 2.45 | 157 to 159 °C | 5.9 µg/mL (≈ 12.4 µM) | 0.5 µg/mL (≈ 1.05 µM)
13 | COc1cc(OCc2ccc(C(F)(F)F)nc2)ccc1-c1nc(-c2ccc(Cl)nc2)[nH]c1C [Example 49] | 3.46 | 196 to 199 °C | 8.7 µg/mL (≈ 18.3 µM) | 0.9 µg/mL (≈ 1.9 µM)
14 | COc1cc(OCc2ncc(C(F)(F)F)cc2F)ccc1-c1cnc(-c2ccc(Br)nc2)[nH]1 [Example 387] | 2.41 | 191 to 193 °C | 4.8 µg/mL (≈ 9.17 µM) | 0.8 µg/mL (≈ 1.53 µM)
15 | COc1cc(OCc2ncc(Cl)cc2F)ccc1-c1cnc(-c2ccc(F)nc2)[nH]1 [Example 141] | 2.33 | 174 to 176 °C | 10.1 µg/mL (≈ 23.6 µM) | < 0.3 µg/mL
16 | COc1cc(OCc2c(F)cc(C(F)(F)F)c[n+]2[O-])ccc1-c1cnc(-c2ccc(F)nc2)[nH]1 [Example 316] | 2.53 | 162 to 167 °C | 94.4 µg/mL (≈ 197 µM) | 4.9 µg/mL (≈ 10.2 µM)
17 | COc1cc(OCc2ccc(C(F)(F)F)cn2)ccc1-c1nc(-c2ccc(Cl)nc2)[nH]c1C [Example 68] | 2.45 | 129 to 132 °C | 104 µg/mL (≈ 219 µM) | 2.3 µg/mL (≈ 4.84 µM)
18 | COc1cc(OCc2ccc(C(F)(F)F)cn2)ccc1-c1[nH]c(C2CCCC(F)(F)C2)nc1Br (stereo not shown) [Example 183] | 4.26 | 170 to 171 °C | 99 µg/mL (≈ 181 µM) | 1.1 µg/mL (≈ 2.01 µM)
19 | COc1cc(-c2[nH]c(C3CCC(F)(F)CC3)nc2Br)ccc1OCc1ncc(C(F)(F)F)cc1F [Example 327] | 3.06 | 203 to 204 °C | 110 µg/mL (≈ 194 µM) | 0.7 µg/mL (≈ 1.24 µM)
